Results on seven compounds are retold here after patent publication US20110207723A1, “NOVEL FUSED AMINODIHYDROTHIAZINE DERIVATIVE” (EISAI R&D MANAGEMENT CO., LTD., priority 2008, published 2011).

Each structure is given as a SMILES string. pIC50: −log10 of the molar value.

The test has as its system Aβ42 production. Nature of the test: Quantification of Aβ peptide in culture of neurons from rat fetus brain (Aβ42 ELISA). Format: cell-based. Particulars: Neuron, 72 h, rat primary neuronal culture (embryonic day 18 Wistar rat cerebral cortex), medium collected three days after addition of compound, read-out: Aβ42 production reducing effect IC50. A digest of the protocol: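 Primary cortical neurons from E18 Wistar rat embryos, cultured 4 days in Neurobasal/B27/2-ME, then treated 3 days with compound in Neurobasal/B27 (final DMSO 1% or less; DMSO control). Conditioned medium collected; Aβx-42 measured undiluted by sandwich ELISA kit.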
(In general: An ELISA detects its analyte on a solid surface through an enzyme-linked reagent.)

For orientation: pIC50 means −log10 of the IC50, conventionally taken in molar units.

As to `C[C@H]1SC(N)=N[C@@]2(c3cc(NC(=O)c4ccc(C#N)cn4)ccc3F)COCC[C@@H]12` (relative stereo) [Example 31, N-[3-((2R*,4aR*,8aS*)-2-amino-4-methyl-4,4a,5,6-tetrahydro-7-oxa-3-thia-1-azanaphthalen-8a-yl)-4-fluorophenyl]-5-cyanopyridine-2-carboxamide], the pIC50 is 8.72.

For `NC1=N[C@@]2(c3cc(NC(=O)c4ccc(Cl)cn4)ccc3F)COCC[C@H]2CS1` (single isomer, unassigned) [Example 49, N-[3-((4aR*,8aS*)-2-amino-4,4a,5,6-tetrahydro-7-oxa-3-thia-1-azanaphthalen-8a-yl)-4-fluorophenyl]-5-chloropyridine-2-carboxamide], the pIC50 was 8.70.

As for `NC1=N[C@@]2(c3cc(-c4cccnc4F)ccc3F)CO[C@@H](CF)C[C@H]2CS1` [Example 60, (4aR,6R,8aS)-8a-[2-fluoro-5-(2-fluoropyridin-3-yl)phenyl]-6-fluoromethyl-4,4a,5,6,8,8a-hexahydro-7-oxa-3-thia-1-azanaphthalen-2-ylamine], the pIC50 was 7.49.

In the case of `NC1=N[C@@]2(c3cc(NC(=O)c4cnc(OC(F)F)cn4)ccc3F)CO[C@@H](C(F)(F)F)C[C@H]2CS1` (relative stereo) [Example 36, N-[3-((4aR*,6R*,8aS*)-2-amino-6-trifluoromethyl-4,4a,5,6-tetrahydro-7-oxa-3-thia-1-azanaphthalen-8a-yl)-4-fluorophenyl]-5-difluoromethoxypyrazine-2-carboxamide], the pIC50 was 9.30.

Consider `C[C@@H]1COC[C@]2(c3cc(NC(=O)c4ccc(C#N)cn4)ccc3F)N=C(N)SC[C@H]12` (relative stereo) [Example 24, N-[3-((4aR*,5S*,8aS*)-2-amino-5-methyl-4,4a,5,6-tetrahydro-7-oxa-3-thia-1-azanaphthalen-8a-yl)-4-fluorophenyl]-5-cyanopyridine-2-carboxamide], for which the pIC50 is 8.05.

Consider `NC1=N[C@@]2(c3cc(NC(=O)c4ccc(OC(F)F)cn4)ccc3F)CO[C@@H](C(F)(F)F)C[C@H]2CS1` (relative stereo) [Example 42, N-[3-((4aR*,6R*,8aS*)-2-amino-6-trifluoromethyl-4,4a,5,6-tetrahydro-7-oxa-3-thia-1-azanaphthalen-8a-yl)-4-fluorophenyl]-5-difluoromethoxypyridine-2-carboxamide], for which the negative-log IC50 (pIC50) was 9.05.

As for `NC1=N[C@@]2(c3cc(NC(=O)c4ccc(Br)cn4)ccc3F)COCC[C@H]2CS1` (single isomer, unassigned) [Example 50, N-[3-((4aR*,8aS*)-2-amino-4,4a,5,6-tetrahydro-7-oxa-3-thia-1-azanaphthalen-8a-yl)-4-fluorophenyl]-5-bromopyridine-2-carboxamide], the negative logarithm of the IC50 (pIC50) is 8.70.
